Data: ChEMBL document CHEMBL5505996, “Discovery of novel osthole derivatives exerting anti-inflammatory effect on DSS-induced ulcerative colitis and LPS-induced acute lung injury in mice” (Eur J Med Chem, 2024)
Values after ≈ are worked out from the molar mass of the structure shown. Active and inactive are the calls of the source. The rule behind the calls is not given here.

Columns and labels:
Mus musculus [1] = experiment: Antiinflammatory activity against C57BL/6 mouse model of DSS induced ulcerative colitis assessed as protection against crypt necrosis at 20 mg/kg, po administered daily for 10 days by H and E staining based analysis; type: functional, organism-based; details: time 10.0 day
J774.A1 [2] = experiment: Antiinflammatory activity against LPS-induced mouse J774.A1 cells assessed as inhibition of IL-6 release at 10 uM pretreated for 30 mins followed by LPS stimulation and measured after 24 hrs by ELISA relative to control; type: functional; details: time 24.5 hrs
Mus musculus [3] = experiment: Antiinflammatory activity against C57BL/6 mouse model of DSS induced ulcerative colitis assessed as reversal of splenomegaly at 20 mg/kg, po administered daily for 10 days; type: functional, organism-based; details: time 10.0 day
RAW264.7 [4] = experiment: Antiinflammatory activity against LPS-induced mouse RAW264.7 cells assessed as inhibition of TNF-alpha release pretreated for 30 mins followed by LPS stimulation and measured after 24 hrs by ELISA; type: functional, cell-based
Mus musculus [5] = experiment: Antiinflammatory activity against C57BL/6 mouse model of DSS induced ulcerative colitis assessed as reversal of splenomegaly at 100 mg/kg, po administered daily for 10 days; type: functional, organism-based; details: time 10.0 day
Mus musculus [6] = experiment: (§1) Antiinflammatory activity against C57BL/6 mouse model of LPS induced acute lung injury assessed as reduction in IL-6 mRNA expression in lung at 20 mg/kg, po administered every 12 hrs for 3 times followed by LPS stimulation for 6 hrs starting from 30 mins post last dose by RT-qPCR analysis; type: functional, organism-based; details: time 42.5 hrs
Mus musculus [7] = experiment: (§2) Antiinflammatory activity against C57BL/6 mouse model of LPS induced acute lung injury assessed as reduction in IL-6 level in serum at 20 mg/kg, po administered every 12 hrs for 3 times followed by LPS stimulation for 6 hrs starting from 30 mins post last dose by ELISA; type: functional, organism-based; details: time 42.5 hrs
[8] = Acute toxicity in ICR mouse assessed as reduction in body weight at 500 mg/kg, po measured daily for 10 days; type: organism-based; details: in vivo, 240 h, time 10 day
J774.A1 [9] = experiment: Inhibition of MAPK signaling pathway in LPS-stimulated mouse J774.A1 cells assessed as reduction in p38 phosphorylation at 10 uM pretreated for 2 hrs followed by LPS stimulation and measured after 30 mins by Western blot analysis; type: cell-based; details: time 2.5 hrs
Mus musculus [10] = experiment: as §2, with “lung” for “serum”, “immunohistochemical staining based analysis” for “ELISA”; type: functional, organism-based; details: time 42.5 hrs
Mus musculus [11] = experiment: as §1, with “inflammatory cell infiltration” for “IL-6 mRNA expression in lung”, “H and E staining based” for “RT-qPCR”; type: functional, organism-based; details: time 42.5 hrs
Mus musculus [12] = experiment: Antiinflammatory activity against C57BL/6 mouse model of DSS induced ulcerative colitis assessed as reduction in IL-6 level in serum at 20 mg/kg, po administered daily for 10 days; type: functional, organism-based; details: time 10.0 day
RAW264.7 [13] = experiment: Antiinflammatory activity against LPS-induced mouse RAW264.7 cells assessed as inhibition of IL-6 release pretreated for 30 mins followed by LPS stimulation and measured after 24 hrs by ELISA; type: functional, cell-based
[14] = Aqueous solubility of compound in phosphate buffer at pH 7.4 measured after 24 hrs by HPLC analysis; type: physicochemical
Mus musculus [15] = experiment: Antiinflammatory activity against C57BL/6 mouse model of DSS induced ulcerative colitis assessed as reversal of shortened intestinal length due to fecal obstruction at 20 mg/kg, po administered daily for 10 days; type: functional, organism-based; details: time 10.0 day
Mus musculus [16] = experiment: as §2, with “pulmonary edema by measuring reduction” for “IL-6 level”, “lung wet/dry ratio” for “serum”, “dose” for “dose by ELISA”; type: functional, organism-based; details: time 42.5 hrs

Q: Which Activity (Mus musculus [1]) does the source give for `CC(C)=CCc1c(OCCCCNCCN2CCOCC2)ccc2ccc(=O)oc12` here?
A: Its Activity is “Active”.

Q: And the inhibition at 10 µM (J774.A1 [2])?
A: Its inhibition at 10 µM is 95%.

Q: And the Activity (Mus musculus [3])?
A: The Activity was “Active”.

Q: And the IC50 (RAW264.7 [4])?
A: Its IC50 is 29.7 µM.

Q: What about the Activity (Mus musculus [5]) of the same compound?
A: The Activity was “Active”.

Q: What about the Activity (Mus musculus [6]) of the same compound?
A: Its Activity is “Active”.

Q: What about the Activity (Mus musculus [7]) of the same compound?
A: Its Activity is “Active”.

Q: And the Activity [8]?
A: Its Activity is “Non-Toxic”.

Q: And the inhibition (J774.A1 [9])?
A: Its inhibition is “Active”.

Q: What about the Activity (Mus musculus [10]) of the same compound?
A: The Activity was “Active”.

Q: And the Activity (Mus musculus [11])?
A: Its Activity is “Active”.

Q: And the Activity (Mus musculus [12])?
A: The Activity was “Active”.

Q: What about the IC50 (RAW264.7 [13]) of the same compound?
A: The IC50 was 4.57 µM.

Q: What about the solubility at 24 h [14] of the same compound?
A: Its solubility at 24 h is 0.34 mg/mL (≈ 820 µM).

Q: And the Activity (Mus musculus [15])?
A: Its Activity is “Active”.

Q: And the Activity (Mus musculus [16])?
A: Its Activity is “Active”.
